Series [1] has as its system animal model with a collagen induced arthritis (CIA). Nature of the series: Evaluation of arthritis index in animal model with collagen induced arthritis. The class given is in vivo, mouse. As to conditions: CIA DBA/1J mice, daurinol 20 mg/kg intravenously, total of 9 times, observed until 7th week.
Series [2] concerns splenocytes of an animal model with obesity arthritis. Nature of the series: Th17/Treg activity by flow cytometry in splenocytes of animal model with obesity arthritis. It is filed as cell-based. Particulars: daurinol 1 μM, anti-CD3 0.5 μg/mL, 3 days. As for the experimental part:
Additionally, for the confirmation of controlling the activity of Th17/Treg cells, the splenocytes of an animal model with obesity arthritis were treated with daurinol (1 μM) and anti-CD3 (0.5 μg/mL) and cultured for 3 days, and the activity of Th17/Treg cells controlled by daurinol were evaluated via flow cytometry.
A general note: A flow cytometer gives signals particle by particle.

The test system of series [3] is splenocyte cell line. Put plainly: TNF-α secretion of LPS treated splenocyte cell line (sandwich ELISA). The class given is cell-based. As to conditions: 20 μM daurinol; LPS 100 ng/mL. How it is done:
For this purpose, a splenocyte cell line was treated with anti-CD3 antibodies (0.5 μg/mL) to induce the secretion of IL-17, or treated with LPS (100 ng/mL) to induce the secretion of TNF-α. Then, the splenocyte cell line was treated with daurinol at concentrations of 0.5 μM, 2.5 μM, and 20 μM, and the supernatants were combined and the amount of IL-17 and TNF-α were examined by sandwich ELISA assay. The resultant was reacted in a 96-well plate with monoclonal anti-IL-17 or anti-TNF-α (2 μg/mL) at 4° C. overnight, and upon reaction, the non-specific binding was blocked using a blocking solution (1% BSA/PBST). IL-17 recombinant or TNF-α in a half amount was continuously diluted and used as standards, and the supernatant of cell culture was reacted at room temperature for 2 hours. Then, the biotinylated anti-IL-17 was reacted at room temperature for 2 hours, washed 4 times, and added with ExtraAvidin-alkaline phosphatase conjugate after dilution, and reacted at room temperature for 2 hours. Subsequently, PNPP/DEA solution was added thereto to fix color and absorbance was measured at 405 nm.

For series [4], the system named is splenocytes cell line. Put plainly: MTT assay for cytotoxicity. The class given is cell-based. Particulars: splenocytes cell line 2×10^5 cells, 96-well plate. As for the experimental part:
Additionally, MTT assay was performed for the observation of cytotoxicity by daurinol treatment. To this end, splenocytes cell line (2×10^5 cells) were plated on a 96-well plate, and daurinol was treated with MTT reagent and wrapped with aluminum foil, and reacted at 37° C. for 4 hours. After 4 hours, the crystals formed were dissolved in DMSO and the absorbance was measured using the ELISA reader.

Series [5] has as its system CD4+ T cells. Put plainly: Inhibition of T cell proliferation in allogenic reaction in vitro. It is filed as cell-based, mouse. As to conditions: daurinol 0.5, 2, 10 and 20 μM. How it is done:
For the confirmation of the effect of the daurinol compound on the inhibition of T cell proliferation and the expression amount of IL-17, the CD4+ T cells (2×10^5 cells) of a normal recipient (Balb/c, responder), and the T cell-removed splenocytes (2×10^5 cells) derived from a recipient (homogenic) or the splenocytes (2×10^5 cells) derived from a donor (C57BL/6, stimulator, allogenic) exposed to irradiation were added to each well of a 96-well round bottom plate, mixed, and cultured in vitro. In particular, the T cell proliferation and the secretion of IL-17 when an allogenic reaction was untreated with daurinol or treated with daurinol at 0.5 μM, 2 μM, 10 μM, and 20 μM, respectively, were observed.

In series [6] the test system is animal model with induced inflammatory bowel disease. Nature of the series: Weight, disease activity index and length of intestine in animal model with inflammatory bowel disease. It is filed as in vivo, mouse. The text has this:
For the confirmation of the effect of the daurinol compound of the present invention on the treatment of inflammatory bowel disease, the present inventors first constructed an animal model with induced inflammatory bowel disease. For the experimental model, C57BL/6(H-2kb) mice were used. For the construction of an animal model with induced inflammatory bowel disease, the mice were fed with 3.5% dextran sulfate sodium (DSS) and water for a week, thereby preparing an animal model with induced inflammatory bowel disease. The present inventors divided the experimental animals into a normal control group, a group of an animal model with induced inflammatory bowel disease, and a group of an animal model with induced inflammatory bowel disease treated with daurinol or a TNF-α inhibitor, and the group treated with daurinol was administered orally and intrarectally with daurinol (20 mg/kg) from the 4th day after the induction with the disease. […] Additionally, one of the features of inflammatory bowel disease is that the damage and shortening of the length of the large intestine are related to the disease activity index. For the analysis of the therapeutic effect of daurinol on the inflammatory bowel disease, the experimental animals were euthanased two weeks after the daurinol treatment, and the length of their intestines were measured.

Series [7] has as its system animal model with inflammatory bowel disease (IBD). Nature of the series: H&E staining and TNF-α expression of large intestine tissues in IBD animal model. It is filed as in vivo, mouse. Particulars: DSS-induced IBD mice, daurinol treated. An excerpt: For the confirmation of the effect of the daurinol compound of the present invention on the treatment of inflammatory bowel disease, the present inventors first constructed an animal model with induced inflammatory bowel disease. For the experimental model, C57BL/6(H-2kb) mice were used. For the construction of an animal model with induced inflammatory bowel disease, the mice were fed with 3.5% dextran sulfate sodium (DSS) and water for a week, thereby preparing an animal model with induced inflammatory bowel disease. The present inventors divided the experimental animals into a normal control group, a group of an animal model with induced inflammatory bowel disease, and a group of an animal model with induced inflammatory bowel disease treated with daurinol or a TNF-α inhibitor, and the group treated with daurinol was administered orally and intrarectally with daurinol (20 mg/kg) from the 4th day after the induction with the disease. Additionally, for the confirmation of the histological findings of the tissues in the large intestine and the expression of inflammatory cytokines, a hematoxylin and eosin (H&E) staining was performed to examine whether the damage of the tissues in the large intestine was reduced by the daurinol treatment.

The subject of series [8] is splenocytes of the animal model with lupus. Nature of the series: TNF-α level in splenocytes of animal model with lupus (ELISA). The class given is cell-based. As to conditions: daurinol 1 μM and 5 μM, anti-CD3 0.5 μg/mL or LPS 100 ng/mL, three days. How it is done:
Additionally, for the confirmation of the effect of controlling the formation of inflammatory cytokines, the splenocytes of the animal model with lupus were treated with daurinol (1 μM and 5 μM) and anti-CD3 (0.5 μg/mL) or LPS (100 ng/mL) for three days and the levels of IL-17 and TNF-α inflammatory cytokines were evaluated by ELISA assay.
For orientation: In an ELISA, binding on a coated surface is turned into a signal by an enzyme label.

Consider `COc1cc2c(-c3ccc4c(c3)OCO4)c3c(cc2cc1O)COC3=O` [daurinol], for which the arthritis index result in series [1] is “almost no increase in arthritis index”. In addition, in series [2], the “activity of Foxp3+ Treg cells (flow cytometry)” value is “induced the activity of Foxp3+ Treg cells” and the “expression of IL-17 (Th17, flow cytometry)” value is “significantly inhibited the expression of IL-17”. The “secretion of TNF-α decreased by” value in series [3] is recorded as “about 40%”. In series [4], the “cytotoxicity according to the concentration of daurinol (MTT)” value is “no significant cytotoxicity”. For the same molecule, the T cell proliferation result in series [5] is reported as “inhibited T cell proliferation in a dose-dependent manner”. For the same molecule, the “disease activity index (DAI)” value in series [6] (DSS-induced IBD C57BL/6 mice, daurinol 20 mg/kg orally and intrarectally from 4th day) was “significant decrease”. Further, in series [6] (DSS-induced IBD C57BL/6 mice, daurinol 20 mg/kg orally and intrarectally from 4th day, vs IBD group), the weight entry is recorded as “significant improvement in weight”. Further, the “length of the intestine” value in series [6] (DSS-induced IBD mice, two weeks after the daurinol treatment, vs IBD group) is on record as “significant increase in the length of the intestine”. Further, in series [7], the “damage of the tissues in the large intestine (H&E staining)” value was “decrease in the intestinal tissue damage” and the “expression of TNF-α in large intestine tissues” value is “significantly inhibits”. Besides, the “expression of TNF-α (ELISA)” value in series [8] was “inhibited the expression of IL-17 and TNF-α in a dose-dependent manner”.

The values are drawn from US9526717B2, “Composition for treating immune diseases containing daurinol compound as active ingredient” (THE CATHOLIC UNIVERSITY OF KOREA INDUSTRY-ACADEMIC …, priority 2013, dated 2016).
